Reference: ChEMBL document CHEMBL4422621, “Novel chalcone and flavone derivatives as selective and dual inhibitors of the transport proteins ABCB1 and ABCG2” (Eur J Med Chem, 2019)

Legend:
ABCG2 (BCRP) [1] = molecular target: T1, ABCG2 (BCRP) (Homo sapiens, UniProt Q9UNQ0); experiment: (§1) Inhibition of ABCG2 (unknown origin) expressed in MDCK II BCRP cells assessed as effect on heophorbide A accumulation at 5 to 10 uM after 120 mins by flow cytometric analysis relative to control; assay type: cell-based; conditions: MDCK II BCRP cells expressing ABCG2, probe pheophorbide A
T1 sequence (Q9UNQ0 whole entry): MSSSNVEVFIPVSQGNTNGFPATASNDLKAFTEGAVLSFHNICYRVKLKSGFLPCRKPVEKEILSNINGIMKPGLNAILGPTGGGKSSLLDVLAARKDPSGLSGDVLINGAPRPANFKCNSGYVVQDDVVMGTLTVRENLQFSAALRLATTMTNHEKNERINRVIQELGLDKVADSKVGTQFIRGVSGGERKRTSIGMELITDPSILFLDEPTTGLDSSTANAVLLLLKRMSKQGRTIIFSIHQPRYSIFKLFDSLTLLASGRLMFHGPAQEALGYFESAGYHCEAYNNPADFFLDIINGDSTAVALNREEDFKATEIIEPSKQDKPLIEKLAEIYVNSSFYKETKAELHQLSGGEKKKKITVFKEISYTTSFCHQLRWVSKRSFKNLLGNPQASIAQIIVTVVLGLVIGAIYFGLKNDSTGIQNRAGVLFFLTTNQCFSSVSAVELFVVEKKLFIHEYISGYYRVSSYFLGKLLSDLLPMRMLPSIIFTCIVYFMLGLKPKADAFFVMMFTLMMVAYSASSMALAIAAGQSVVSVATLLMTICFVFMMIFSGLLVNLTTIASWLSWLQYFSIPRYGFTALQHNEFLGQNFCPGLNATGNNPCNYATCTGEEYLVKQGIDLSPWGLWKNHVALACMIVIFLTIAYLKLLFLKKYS

[2] = molecular target: ATP-dependent translocase ABCB1 (Homo sapiens, UniProt P08183); experiment: Inhibition of ABCB1 in human A2780/ADR cells at 5 to 10 uM preincubated for 30 mins followed by calcein AM addition and measured every 60 secs for 1 hr by fluorescence assay; assay type: cell-based
[3] = molecular target: Multidrug resistance-associated protein 1 (Homo sapiens, UniProt P33527); experiment: Inhibition of ABCC1 in human […] cells at 5 to 10 uM preincubated for 30 mins followed by calcein AM addition and measured every 60 secs for 1 hr by fluorescence assay; assay type: cell-based
[4] = molecular target: T2, Broad substrate specificity ATP-binding cassette transporter ABCG2 (Homo sapiens, UniProt Q9UNQ0); experiment: Inhibition of ABCG2 (unknown origin) expressed in MDCK II BCRP cells assessed as effect on pheophorbide A accumulation after 120 mins by flow cytometric analysis; assay type: cell-based
T2 sequence (Q9UNQ0 whole entry): T1 sequence (Q9UNQ0 whole entry)

[5] = molecular target: T2, Broad substrate specificity ATP-binding cassette transporter ABCG2; experiment: as §1; assay type: cell-based; conditions: 2 h
[6] = Growth inhibition of MDCK2 cells after 72 hrs by MTT assay; assay type: cell-based, Canis lupus familiaris, MDCK-II; conditions: dog
ABCG2 (BCRP) [7] = experiment: Therapeutic index, ratio of GI50 for MDCK2 cells expressing BCRP (unknown origin) to EC50 for ABCG2 (unknown origin) co-expressed in MDCK2 cells expressing BCRP (unknown origin); assay type: toxicity, cell-based; conditions: dog
[8] = Growth inhibition of MDCK2 cells expressing BCRP (unknown origin) after 72 hrs by MTT assay; assay type: ADME, cell-based, Canis lupus familiaris, MDCK-II; conditions: dog

Multidrug resistance-associated protein 1, sequence (P33527 whole entry): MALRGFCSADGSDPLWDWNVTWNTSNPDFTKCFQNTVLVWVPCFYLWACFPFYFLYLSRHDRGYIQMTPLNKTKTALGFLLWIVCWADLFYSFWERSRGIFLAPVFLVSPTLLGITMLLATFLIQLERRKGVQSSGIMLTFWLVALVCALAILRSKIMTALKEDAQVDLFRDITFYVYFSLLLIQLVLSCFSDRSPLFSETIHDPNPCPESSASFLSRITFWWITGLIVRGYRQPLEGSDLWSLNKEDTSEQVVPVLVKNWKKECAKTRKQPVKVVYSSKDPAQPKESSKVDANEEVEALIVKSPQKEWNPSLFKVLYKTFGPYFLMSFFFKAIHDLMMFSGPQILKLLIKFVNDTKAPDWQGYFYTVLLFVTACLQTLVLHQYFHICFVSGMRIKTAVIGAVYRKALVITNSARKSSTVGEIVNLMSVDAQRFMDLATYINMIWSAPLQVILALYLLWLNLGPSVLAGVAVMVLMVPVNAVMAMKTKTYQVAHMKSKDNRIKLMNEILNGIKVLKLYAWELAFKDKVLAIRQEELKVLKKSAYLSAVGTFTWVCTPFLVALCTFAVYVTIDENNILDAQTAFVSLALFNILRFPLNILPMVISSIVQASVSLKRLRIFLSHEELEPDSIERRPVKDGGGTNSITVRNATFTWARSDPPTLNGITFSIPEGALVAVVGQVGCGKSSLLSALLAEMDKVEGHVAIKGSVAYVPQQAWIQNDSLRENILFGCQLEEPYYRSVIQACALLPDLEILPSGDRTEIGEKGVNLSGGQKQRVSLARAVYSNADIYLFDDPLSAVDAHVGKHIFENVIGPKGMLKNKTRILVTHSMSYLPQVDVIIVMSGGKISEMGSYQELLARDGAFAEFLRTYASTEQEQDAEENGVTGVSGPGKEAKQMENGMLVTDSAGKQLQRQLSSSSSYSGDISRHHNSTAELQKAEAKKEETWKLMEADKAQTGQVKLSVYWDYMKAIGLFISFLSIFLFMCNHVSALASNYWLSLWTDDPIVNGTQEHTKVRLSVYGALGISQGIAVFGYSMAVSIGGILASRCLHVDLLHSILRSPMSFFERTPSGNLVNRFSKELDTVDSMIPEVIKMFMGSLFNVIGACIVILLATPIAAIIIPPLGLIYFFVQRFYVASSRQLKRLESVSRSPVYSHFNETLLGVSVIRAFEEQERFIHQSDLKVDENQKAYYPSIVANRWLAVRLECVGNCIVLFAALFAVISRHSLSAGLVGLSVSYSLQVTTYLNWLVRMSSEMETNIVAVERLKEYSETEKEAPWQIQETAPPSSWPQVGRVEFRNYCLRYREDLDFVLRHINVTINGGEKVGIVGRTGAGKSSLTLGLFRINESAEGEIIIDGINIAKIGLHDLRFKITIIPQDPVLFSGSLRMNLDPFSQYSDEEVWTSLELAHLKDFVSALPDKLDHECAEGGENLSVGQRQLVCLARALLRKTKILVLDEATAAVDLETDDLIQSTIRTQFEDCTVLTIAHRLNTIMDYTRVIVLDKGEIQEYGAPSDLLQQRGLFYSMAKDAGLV
ATP-dependent translocase ABCB1, sequence (P08183 whole entry): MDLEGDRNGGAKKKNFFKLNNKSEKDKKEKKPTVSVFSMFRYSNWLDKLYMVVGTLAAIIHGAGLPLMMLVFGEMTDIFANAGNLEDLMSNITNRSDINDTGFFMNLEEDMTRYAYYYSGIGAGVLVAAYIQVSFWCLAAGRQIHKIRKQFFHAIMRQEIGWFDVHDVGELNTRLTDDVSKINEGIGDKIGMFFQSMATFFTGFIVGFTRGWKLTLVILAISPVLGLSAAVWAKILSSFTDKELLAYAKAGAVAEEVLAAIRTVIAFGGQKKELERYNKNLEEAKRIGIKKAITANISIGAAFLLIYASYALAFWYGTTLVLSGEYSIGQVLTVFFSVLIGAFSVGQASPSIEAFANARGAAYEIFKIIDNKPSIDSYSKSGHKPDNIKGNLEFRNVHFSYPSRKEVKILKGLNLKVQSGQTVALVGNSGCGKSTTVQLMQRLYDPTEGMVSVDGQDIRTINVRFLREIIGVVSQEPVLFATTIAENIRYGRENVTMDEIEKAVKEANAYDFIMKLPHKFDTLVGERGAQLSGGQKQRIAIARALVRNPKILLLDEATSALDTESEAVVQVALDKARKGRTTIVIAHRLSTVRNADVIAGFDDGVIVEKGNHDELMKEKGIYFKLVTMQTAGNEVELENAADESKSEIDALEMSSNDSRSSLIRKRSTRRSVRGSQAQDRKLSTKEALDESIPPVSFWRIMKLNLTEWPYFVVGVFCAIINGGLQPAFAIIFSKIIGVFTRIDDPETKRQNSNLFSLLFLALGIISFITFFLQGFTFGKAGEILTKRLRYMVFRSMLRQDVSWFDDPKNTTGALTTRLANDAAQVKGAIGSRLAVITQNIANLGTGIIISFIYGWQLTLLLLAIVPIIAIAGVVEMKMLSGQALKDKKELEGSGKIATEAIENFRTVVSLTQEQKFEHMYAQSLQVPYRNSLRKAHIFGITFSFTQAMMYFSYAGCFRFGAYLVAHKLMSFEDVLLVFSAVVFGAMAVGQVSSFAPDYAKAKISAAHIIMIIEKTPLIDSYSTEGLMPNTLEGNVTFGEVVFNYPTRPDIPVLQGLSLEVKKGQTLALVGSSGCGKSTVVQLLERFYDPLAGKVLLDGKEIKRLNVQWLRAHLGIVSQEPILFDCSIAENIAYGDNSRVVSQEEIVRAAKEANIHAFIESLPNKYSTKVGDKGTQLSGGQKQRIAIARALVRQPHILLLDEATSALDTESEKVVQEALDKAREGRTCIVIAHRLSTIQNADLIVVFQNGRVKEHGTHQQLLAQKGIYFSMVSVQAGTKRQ

| SMILES | inhibition at 2 h (ABCG2 (BCRP) [1]) [%] | IC50 [4] [µM] | inhibition (INH) [5] | other results |
| --- | --- | --- | --- | --- |
| O=C(/C=C/c1cccs1)c1ccccc1O | ≥ 25 | 10.5 | – | inhibition (INH) [2]: Not Active; inhibition (INH) [3]: Not Active |
| O=C(/C=C/c1ccco1)c1ccc(O)cc1 | – | – | Not Active | inhibition (INH) [2]: Not Active; inhibition (INH) [3]: Not Active |
| COc1cc(C(=O)/C=C/c2cc(OC)c(OC)c(OC)c2)ccc1O | ≥ 25 | 1.97 | – | GI50 at 72 h [6]: 7.56 µM; inhibition (INH) [2]: Not Active; inhibition (INH) [3]: Not Active; selectivity ratio (ABCG2 (BCRP) [7]): 4.8; GI50 at 72 h [8]: 9.38 µM |
| O=C(/C=C/c1ccccc1C(F)(F)F)c1ccc(O)cc1 | ≥ 25 | 4.91 | – | inhibition (INH) [2]: Not Active; inhibition (INH) [3]: Not Active |
| COc1cc(C(=O)/C=C/c2cc(OC)c(OC)c(OC)c2)ccc1OCC(=O)Nc1ccc2c(c1)COC2=O | ≥ 25 | 11.4 | – | – |
| COc1cc(-c2oc3ccccc3c(=O)c2OCC(=O)Nc2ccc3c(c2)COC3=O)cc(OC)c1OC | ≥ 25 | 9 | – | – |
| O=C(COc1ccc(C(=O)/C=C/c2ccc([N+](=O)[O-])cc2)cc1)Nc1ccc2c(c1)COC2=O | – | – | Not Active | – |
| O=C(COc1ccc(C(=O)/C=C/c2cccs2)cc1)Nc1ccc2c(c1)COC2=O | – | – | Not Active | – |
| CCCOc1ccc(/C=C/C(=O)c2ccc(OCC(=O)Nc3ccc4c(c3)COC4=O)cc2)cc1 | – | – | Not Active | – |
| COc1ccc(/C=C/C(=O)c2ccc(OCC(=O)Nc3ccc4c(c3)COC4=O)cc2)cc1OC | ≥ 25 | 6.63 | – | – |
| O=C(COc1ccc(C(=O)/C=C/c2ccccc2Cl)cc1)Nc1ccc2c(c1)COC2=O | – | – | Not Active | – |
| O=C(COc1ccc(C(=O)/C=C/c2c(F)cccc2F)cc1)Nc1ccc2c(c1)COC2=O | ≥ 25 | 10.9 | – | – |
| COc1ccc(NC(=O)COc2ccc(C(=O)/C=C/c3ccco3)cc2)cc1OC | ≥ 25 | 5.4 | – | – |
| O=C(COc1cccc(C(=O)/C=C/c2ccccc2)c1)Nc1ccc2c(c1)COC2=O | ≥ 25 | 6.08 | – | GI50 at 72 h [6]: 11.5 µM; selectivity ratio (ABCG2 (BCRP) [7]): 2.7; GI50 at 72 h [8]: 16.6 µM |
| O=C(COc1ccc(C(=O)/C=C/c2ccc(OCc3ccc(Cl)cc3)cc2)cc1)Nc1ccc2c(c1)COC2=O | – | – | Not Active | – |
| O=C(COc1ccc(C(=O)/C=C/c2ccc(OCc3ccc(Cl)cc3Cl)cc2)cc1)Nc1ccc2c(c1)COC2=O | – | – | Not Active | – |
| COc1ccc(NC(=O)COc2ccc(C(=O)/C=C/c3ccc(Cl)cc3)cc2)cc1OC | ≥ 25 | 6.95 | – | – |
| COc1cc(/C=C/C(=O)c2ccc(OCC(=O)Nc3ccc4c(c3)COC4=O)cc2)cc(OC)c1OC | ≥ 25 | 8.44 | – | – |
| COc1cc(/C=C/C(=O)c2ccc(OCC(=O)NCc3ccc4c(c3)OCO4)cc2)cc(OC)c1OC | ≥ 25 | 6.89 | – | GI50 at 72 h [6]: 61.5 µM; selectivity ratio (ABCG2 (BCRP) [7]): 9.2; GI50 at 72 h [8]: 63.5 µM |
| O=C(COc1ccc(C(=O)/C=C/c2c(F)cccc2F)cc1)NCc1ccc2c(c1)OCO2 | – | – | Not Active | – |
| O=C(COc1ccc(C(=O)/C=C/c2ccccc2)cc1)Nc1ccc2c(c1)COC2=O | – | – | Not Active | – |
| CCCCOc1ccc(/C=C/C(=O)c2ccc(OCC(=O)Nc3ccc4c(c3)COC4=O)cc2)cc1 | – | – | Not Active | – |
| COc1ccc(/C=C/C(=O)c2ccc(OCC(=O)Nc3ccc4c(c3)COC4=O)cc2)cc1 | – | – | Not Active | – |
| O=C(COc1ccc(C(=O)/C=C/c2ccc(OCc3ccccc3)cc2)cc1)Nc1ccc2c(c1)COC2=O | – | – | Not Active | – |
| COc1cccc(/C=C/C(=O)c2ccc(OCC(=O)Nc3ccc(OC)c(OC)c3)cc2)c1 | ≥ 25 | 3.58 | – | GI50 at 72 h [6]: 33.2 µM; selectivity ratio (ABCG2 (BCRP) [7]): 10.3; GI50 at 72 h [8]: 36.7 µM |
| COc1ccc(/C=C/C(=O)c2ccc(OCC(=O)NCc3ccc4c(c3)OCO4)cc2)cc1 | ≥ 25 | 10 | – | – |
| COc1ccc(/C=C/C(=O)c2cccc(OCC(=O)Nc3ccc4c(c3)COC4=O)c2)cc1OC | ≥ 25 | 12 | – | – |

| SMILES | inhibition at 2 h (ABCG2 (BCRP) [1]) [%] | IC50 [4] [µM] | inhibition (INH) [5] | other results |
| --- | --- | --- | --- | --- |
| COc1ccc(NC(=O)COc2ccc(C(=O)/C=C/c3c(F)cccc3F)cc2)cc1OC | ≥ 25 | 6.11 | – | GI50 at 72 h [6]: 36.2 µM; selectivity ratio (ABCG2 (BCRP) [7]): 6; GI50 at 72 h [8]: 36.6 µM |
| CCOc1ccc(/C=C/C(=O)c2ccc(OCC(=O)Nc3ccc4c(c3)COC4=O)cc2)cc1 | ≥ 25 | 20.1 | – | – |
| O=C(COc1ccc(/C=C/C(=O)c2ccc(F)cc2)cc1)Nc1ccc2c(c1)COC2=O | – | – | Not Active | – |
| COc1cccc(/C=C/C(=O)c2ccc(OCC(=O)Nc3ccc4c(c3)COC4=O)cc2)c1 | – | – | Not Active | – |
| CCOc1ccc(/C=C/C(=O)c2ccc(OCC(=O)NCc3ccc4c(c3)OCO4)cc2)cc1 | – | – | Not Active | – |
| COc1ccc(/C=C/C(=O)c2cccc(OCC(=O)Nc3ccc(OC)c(OC)c3)c2)cc1OC | ≥ 25 | 6.33 | – | – |
| O=C(COc1ccc(C(=O)/C=C/c2ccco2)cc1)Nc1ccc2c(c1)COC2=O | – | – | Not Active | – |
| O=C(/C=C/c1ccco1)c1ccccc1O | ≥ 25 | 16.2 | – | inhibition (INH) [2]: Not Active; inhibition (INH) [3]: Not Active |
| O=C(COc1c(-c2ccccc2)oc2ccccc2c1=O)Nc1ccc2c(c1)COC2=O | ≥ 25 | 13.1 | – | – |
| O=C(/C=C/c1ccc(OCc2ccccc2)cc1)c1ccc(O)cc1 | ≥ 25 | 9.21 | – | inhibition (INH) [2]: Not Active; inhibition (INH) [3]: Not Active |
| O=C(COc1c(-c2cccs2)oc2ccccc2c1=O)Nc1ccc2c(c1)COC2=O | – | – | Not Active | – |
| O=C(/C=C/c1ccc(OCc2ccc(Cl)cc2)cc1)c1ccc(O)cc1 | ≥ 25 | 20 | – | inhibition (INH) [2]: Not Active; inhibition (INH) [3]: Not Active |
| CCOc1ccc(/C=C/C(=O)c2ccc(O)cc2)cc1 | ≥ 25 | 6.44 | – | inhibition (INH) [2]: Not Active; inhibition (INH) [3]: Not Active |
| O=C(/C=C/c1cccs1)c1ccc(O)cc1 | ≥ 25 | 18.2 | – | inhibition (INH) [2]: Not Active; inhibition (INH) [3]: Not Active |
| COc1ccc(-c2oc3ccccc3c(=O)c2OCC(=O)Nc2ccc3c(c2)COC3=O)cc1 | – | – | Not Active | – |
| COc1cc(-c2c(OCC(=O)Nc3cccc4ccccc34)oc3ccccc3c2=O)cc(OC)c1OC | ≥ 25 | 10.5 | – | – |
| Cc1ccc(-c2c(OCC(=O)Nc3ccc(Br)cc3)oc3ccccc3c2=O)cc1 | – | – | Not Active | – |
| COc1cc(/C=C/C(=O)c2cccc(O)c2)cc(OC)c1OC | ≥ 25 | 4.28 | – | inhibition (INH) [2]: Not Active; inhibition (INH) [3]: Not Active |
| O=C(/C=C/c1ccc(OCc2ccc(Cl)cc2Cl)cc1)c1ccc(O)cc1 | – | – | Not Active | inhibition (INH) [2]: Not Active; inhibition (INH) [3]: Not Active |
| COc1ccc(-c2oc3ccccc3c(=O)c2OCC(=O)Nc2ccc3c(c2)COC3=O)cc1OC | – | – | Not Active | – |
| COc1ccc(-c2c(OCC(=O)Nc3ccc(Br)cc3)oc3ccccc3c2=O)cc1 | – | – | Not Active | – |
| CCCCOc1ccc(/C=C/C(=O)c2ccc(O)cc2)cc1 | ≥ 25 | 7.29 | – | inhibition (INH) [2]: Not Active; inhibition (INH) [3]: Not Active |
| O=C(COc1c(-c2ccco2)oc2ccccc2c1=O)Nc1ccc2c(c1)COC2=O | – | – | Not Active | – |
| Cc1ccc(-c2oc3ccccc3c(=O)c2OCC(=O)Nc2ccc3c(c2)COC3=O)cc1 | – | – | Not Active | – |
| CCCOc1ccc(/C=C/C(=O)c2ccc(O)cc2)cc1 | ≥ 25 | 4.74 | – | GI50 at 72 h [6]: 31.1 µM; inhibition (INH) [2]: Not Active; inhibition (INH) [3]: Not Active; selectivity ratio (ABCG2 (BCRP) [7]): 6; GI50 at 72 h [8]: 28.5 µM |
| O=C(/C=C/c1c(F)cccc1F)c1ccc(O)cc1 | ≥ 25 | 7.22 | – | inhibition (INH) [2]: Not Active; inhibition (INH) [3]: Not Active |
